Assay: Plasma protein binding of cysteamine
Type: in vitro ADME
Details: human plasma proteins, predominantly albumin

fraction unbound: ~0.48
Compound: NCCS [cysteamine]
